This is an account of results in ChEMBL document CHEMBL3098008, “Lactam based 7-amino suberoylamide hydroxamic acids as potent HDAC inhibitors” (Bioorg Med Chem Lett, 2014).

A short description of test [1]: Cytotoxicity against human H460 cells. Format: functional, cell-based. Particulars: NCI-H460.
Test [2] addresses T1, Histone deacetylase 11 (Homo sapiens, UniProt Q96DB2).
T1 sequence (Q96DB2 whole entry): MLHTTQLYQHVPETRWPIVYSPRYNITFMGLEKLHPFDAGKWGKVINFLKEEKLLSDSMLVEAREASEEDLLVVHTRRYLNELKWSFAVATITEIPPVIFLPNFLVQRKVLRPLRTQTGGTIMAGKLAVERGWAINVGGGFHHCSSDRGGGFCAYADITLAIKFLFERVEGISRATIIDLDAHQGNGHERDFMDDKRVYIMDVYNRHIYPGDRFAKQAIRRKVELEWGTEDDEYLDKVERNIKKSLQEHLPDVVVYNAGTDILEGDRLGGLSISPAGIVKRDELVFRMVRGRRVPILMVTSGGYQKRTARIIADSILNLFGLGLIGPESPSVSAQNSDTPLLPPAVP
As to the kind of experiment: Inhibition of human HDAC11 using RHKK(Ac) as substrate by fluorimetric analysis.

Test [3] has as its target T2, Polyamine deacetylase HDAC10 (Homo sapiens, UniProt Q969S8).
T2 sequence (Q969S8 whole entry): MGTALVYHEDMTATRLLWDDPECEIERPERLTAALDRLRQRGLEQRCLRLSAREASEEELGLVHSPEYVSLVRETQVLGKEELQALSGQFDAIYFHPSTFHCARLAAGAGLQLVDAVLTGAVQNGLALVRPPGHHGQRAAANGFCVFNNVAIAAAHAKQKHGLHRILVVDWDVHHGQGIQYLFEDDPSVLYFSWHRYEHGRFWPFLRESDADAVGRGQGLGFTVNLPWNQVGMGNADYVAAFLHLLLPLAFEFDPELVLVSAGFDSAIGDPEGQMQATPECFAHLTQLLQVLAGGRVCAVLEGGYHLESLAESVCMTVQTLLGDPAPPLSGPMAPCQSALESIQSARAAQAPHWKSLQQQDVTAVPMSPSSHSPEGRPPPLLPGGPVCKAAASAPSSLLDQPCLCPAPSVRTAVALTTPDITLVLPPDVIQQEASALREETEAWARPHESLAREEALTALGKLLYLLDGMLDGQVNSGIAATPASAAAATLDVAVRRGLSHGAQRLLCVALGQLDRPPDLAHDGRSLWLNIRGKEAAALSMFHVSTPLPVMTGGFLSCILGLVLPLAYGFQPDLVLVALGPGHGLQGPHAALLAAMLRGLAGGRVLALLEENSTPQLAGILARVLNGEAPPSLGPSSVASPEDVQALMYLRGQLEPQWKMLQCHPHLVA
Nature of the test: Inhibition of human HDAC10 using RHKK(Ac) as substrate by fluorimetric analysis.

For test [4], the target named is T3, Protein deacetylase HDAC6 (Homo sapiens, UniProt Q9UBN7).
T3 sequence (Q9UBN7 whole entry): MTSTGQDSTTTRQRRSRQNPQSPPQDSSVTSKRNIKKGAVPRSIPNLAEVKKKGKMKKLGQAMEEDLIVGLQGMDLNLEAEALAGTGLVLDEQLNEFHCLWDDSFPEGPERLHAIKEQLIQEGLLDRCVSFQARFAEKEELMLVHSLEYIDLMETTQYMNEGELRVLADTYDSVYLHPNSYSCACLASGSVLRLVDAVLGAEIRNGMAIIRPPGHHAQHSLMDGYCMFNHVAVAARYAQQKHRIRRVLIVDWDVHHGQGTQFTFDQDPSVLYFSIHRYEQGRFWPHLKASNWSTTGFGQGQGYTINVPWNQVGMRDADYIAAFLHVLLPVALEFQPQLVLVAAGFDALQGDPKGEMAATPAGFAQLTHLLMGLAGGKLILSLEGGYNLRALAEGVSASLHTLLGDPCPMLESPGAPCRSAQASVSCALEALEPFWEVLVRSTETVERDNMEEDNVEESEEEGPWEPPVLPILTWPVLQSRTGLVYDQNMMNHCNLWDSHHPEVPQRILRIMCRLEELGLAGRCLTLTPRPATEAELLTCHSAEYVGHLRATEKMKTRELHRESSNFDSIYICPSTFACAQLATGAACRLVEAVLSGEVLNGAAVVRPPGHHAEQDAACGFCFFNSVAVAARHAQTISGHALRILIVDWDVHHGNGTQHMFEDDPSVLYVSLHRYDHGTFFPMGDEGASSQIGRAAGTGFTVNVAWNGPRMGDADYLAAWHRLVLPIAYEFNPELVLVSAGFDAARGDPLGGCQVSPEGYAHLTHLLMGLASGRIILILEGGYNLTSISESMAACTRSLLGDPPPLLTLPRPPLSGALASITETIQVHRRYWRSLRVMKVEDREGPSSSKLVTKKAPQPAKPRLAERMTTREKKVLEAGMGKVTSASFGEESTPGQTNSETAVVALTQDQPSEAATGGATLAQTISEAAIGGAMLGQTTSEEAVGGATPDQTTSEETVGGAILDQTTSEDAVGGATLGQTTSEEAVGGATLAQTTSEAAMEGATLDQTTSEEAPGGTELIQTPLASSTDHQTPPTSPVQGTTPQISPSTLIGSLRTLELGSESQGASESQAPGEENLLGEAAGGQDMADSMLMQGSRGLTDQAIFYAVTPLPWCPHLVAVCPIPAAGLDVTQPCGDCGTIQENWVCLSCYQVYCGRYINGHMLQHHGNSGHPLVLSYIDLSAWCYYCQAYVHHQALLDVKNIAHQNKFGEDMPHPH
As to the kind of experiment: Inhibition of human HDAC6 using RHKK(Ac) as substrate by fluorimetric analysis.

In test [5] the target is Histone deacetylase 3/Nuclear receptor corepressor 2 (HDAC3/NCoR2) (Homo sapiens, UniProt O15379). Nature of the test: Inhibition of human HDAC3/NCOR2 using RHKK(Ac) as substrate by fluorimetric analysis. It counts as protein-complex assay.
Histone deacetylase 3/Nuclear receptor corepressor 2 (HDAC3/NCoR2), sequence (O15379 whole entry): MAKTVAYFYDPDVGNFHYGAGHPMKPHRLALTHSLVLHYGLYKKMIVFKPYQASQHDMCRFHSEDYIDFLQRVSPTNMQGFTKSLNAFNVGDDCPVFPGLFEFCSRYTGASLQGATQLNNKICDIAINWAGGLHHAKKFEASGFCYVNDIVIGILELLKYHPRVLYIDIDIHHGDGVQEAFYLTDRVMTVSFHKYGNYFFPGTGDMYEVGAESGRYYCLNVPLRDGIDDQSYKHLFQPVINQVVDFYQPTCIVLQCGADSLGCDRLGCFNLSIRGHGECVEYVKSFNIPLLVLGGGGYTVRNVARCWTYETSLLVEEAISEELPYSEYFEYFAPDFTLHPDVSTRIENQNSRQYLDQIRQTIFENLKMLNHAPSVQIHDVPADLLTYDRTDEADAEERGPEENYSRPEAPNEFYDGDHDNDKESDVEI
Histone deacetylase 3/Nuclear receptor corepressor 2 (HDAC3/NCoR2), sequence (Q9Y618 whole entry, further chain): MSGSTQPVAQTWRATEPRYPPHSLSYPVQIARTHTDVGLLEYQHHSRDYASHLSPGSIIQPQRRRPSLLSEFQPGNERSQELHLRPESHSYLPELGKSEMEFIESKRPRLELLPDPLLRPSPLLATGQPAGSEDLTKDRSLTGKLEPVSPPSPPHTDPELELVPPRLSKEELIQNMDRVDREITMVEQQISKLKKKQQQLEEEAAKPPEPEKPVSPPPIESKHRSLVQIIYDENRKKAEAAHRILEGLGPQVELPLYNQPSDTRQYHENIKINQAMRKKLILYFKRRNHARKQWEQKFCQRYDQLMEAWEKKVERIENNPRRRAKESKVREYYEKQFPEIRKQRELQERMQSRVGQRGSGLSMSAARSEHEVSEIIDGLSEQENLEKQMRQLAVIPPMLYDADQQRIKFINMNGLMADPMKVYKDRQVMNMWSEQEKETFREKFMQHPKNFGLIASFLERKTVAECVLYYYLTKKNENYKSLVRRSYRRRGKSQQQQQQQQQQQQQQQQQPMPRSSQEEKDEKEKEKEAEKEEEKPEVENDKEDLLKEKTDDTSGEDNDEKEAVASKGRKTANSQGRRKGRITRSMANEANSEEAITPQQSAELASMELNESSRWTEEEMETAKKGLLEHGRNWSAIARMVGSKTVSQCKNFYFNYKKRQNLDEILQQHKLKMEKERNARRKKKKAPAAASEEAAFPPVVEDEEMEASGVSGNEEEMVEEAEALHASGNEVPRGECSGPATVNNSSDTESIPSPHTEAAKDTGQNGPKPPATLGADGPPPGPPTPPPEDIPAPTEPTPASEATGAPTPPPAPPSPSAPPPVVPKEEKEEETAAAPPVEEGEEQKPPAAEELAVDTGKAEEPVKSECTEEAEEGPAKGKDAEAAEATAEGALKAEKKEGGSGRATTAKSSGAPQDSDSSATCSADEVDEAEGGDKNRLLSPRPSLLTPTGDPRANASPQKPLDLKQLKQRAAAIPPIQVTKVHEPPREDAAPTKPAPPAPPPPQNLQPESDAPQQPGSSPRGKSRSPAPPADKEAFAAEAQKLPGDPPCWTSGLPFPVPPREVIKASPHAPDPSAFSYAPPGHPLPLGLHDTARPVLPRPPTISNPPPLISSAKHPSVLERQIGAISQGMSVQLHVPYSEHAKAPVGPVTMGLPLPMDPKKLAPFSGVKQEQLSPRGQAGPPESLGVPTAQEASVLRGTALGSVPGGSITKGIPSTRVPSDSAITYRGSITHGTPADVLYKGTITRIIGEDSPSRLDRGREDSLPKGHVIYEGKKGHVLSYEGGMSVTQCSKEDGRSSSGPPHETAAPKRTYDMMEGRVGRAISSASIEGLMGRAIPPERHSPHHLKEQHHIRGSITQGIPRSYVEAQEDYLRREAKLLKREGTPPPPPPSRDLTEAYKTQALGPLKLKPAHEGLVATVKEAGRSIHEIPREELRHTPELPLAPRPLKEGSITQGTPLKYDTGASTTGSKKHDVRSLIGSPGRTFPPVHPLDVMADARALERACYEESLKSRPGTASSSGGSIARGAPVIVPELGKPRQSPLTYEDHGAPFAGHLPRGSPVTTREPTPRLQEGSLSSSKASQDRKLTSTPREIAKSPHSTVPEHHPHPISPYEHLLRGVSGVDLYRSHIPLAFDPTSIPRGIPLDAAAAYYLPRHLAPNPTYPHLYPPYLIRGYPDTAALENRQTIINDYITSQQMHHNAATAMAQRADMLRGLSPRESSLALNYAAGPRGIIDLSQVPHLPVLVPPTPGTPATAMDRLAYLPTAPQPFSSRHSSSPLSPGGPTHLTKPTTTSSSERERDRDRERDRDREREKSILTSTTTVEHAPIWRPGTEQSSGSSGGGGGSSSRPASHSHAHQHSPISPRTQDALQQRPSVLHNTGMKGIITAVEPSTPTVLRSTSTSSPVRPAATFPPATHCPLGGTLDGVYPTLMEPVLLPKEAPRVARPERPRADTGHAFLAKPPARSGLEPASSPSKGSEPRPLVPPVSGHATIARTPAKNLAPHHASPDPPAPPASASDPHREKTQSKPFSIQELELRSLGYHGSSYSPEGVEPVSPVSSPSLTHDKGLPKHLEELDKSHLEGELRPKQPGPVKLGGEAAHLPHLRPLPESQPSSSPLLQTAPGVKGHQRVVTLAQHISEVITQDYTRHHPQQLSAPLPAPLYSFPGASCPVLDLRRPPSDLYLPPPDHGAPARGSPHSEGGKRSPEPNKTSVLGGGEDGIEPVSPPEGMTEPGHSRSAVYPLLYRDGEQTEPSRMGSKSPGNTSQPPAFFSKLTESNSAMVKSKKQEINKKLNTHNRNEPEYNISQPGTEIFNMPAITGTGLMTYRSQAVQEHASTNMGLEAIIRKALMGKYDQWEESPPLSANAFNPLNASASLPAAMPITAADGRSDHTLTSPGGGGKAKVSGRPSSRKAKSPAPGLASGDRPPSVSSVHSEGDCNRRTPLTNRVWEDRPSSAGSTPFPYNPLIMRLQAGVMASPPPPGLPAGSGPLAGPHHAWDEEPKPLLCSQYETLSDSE
Test [6] addresses Histone deacetylase 2 (Homo sapiens, UniProt Q92769). Nature of the test: Inhibition of human HDAC2 using RHKK(Ac) as substrate by fluorimetric analysis.
Test [7] addresses Histone deacetylase 1 (Homo sapiens, UniProt Q13547). Nature of the test: Inhibition of human HDAC1 using RHKK(Ac) as substrate by fluorimetric analysis.

Histone deacetylase 1, sequence (Q13547 whole entry): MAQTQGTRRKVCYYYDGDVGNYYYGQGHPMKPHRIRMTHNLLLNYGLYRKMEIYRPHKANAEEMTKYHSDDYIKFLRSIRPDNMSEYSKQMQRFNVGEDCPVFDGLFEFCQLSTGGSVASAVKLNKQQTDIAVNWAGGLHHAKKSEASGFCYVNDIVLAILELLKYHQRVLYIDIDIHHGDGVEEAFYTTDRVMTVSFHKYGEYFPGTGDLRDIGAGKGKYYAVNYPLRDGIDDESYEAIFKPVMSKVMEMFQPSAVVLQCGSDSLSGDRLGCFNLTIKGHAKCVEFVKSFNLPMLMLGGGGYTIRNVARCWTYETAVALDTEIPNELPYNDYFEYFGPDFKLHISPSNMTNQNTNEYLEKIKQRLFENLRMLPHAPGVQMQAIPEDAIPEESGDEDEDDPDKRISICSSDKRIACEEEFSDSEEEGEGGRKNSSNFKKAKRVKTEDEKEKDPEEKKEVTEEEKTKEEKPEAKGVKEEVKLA
Histone deacetylase 2, sequence (Q92769 whole entry): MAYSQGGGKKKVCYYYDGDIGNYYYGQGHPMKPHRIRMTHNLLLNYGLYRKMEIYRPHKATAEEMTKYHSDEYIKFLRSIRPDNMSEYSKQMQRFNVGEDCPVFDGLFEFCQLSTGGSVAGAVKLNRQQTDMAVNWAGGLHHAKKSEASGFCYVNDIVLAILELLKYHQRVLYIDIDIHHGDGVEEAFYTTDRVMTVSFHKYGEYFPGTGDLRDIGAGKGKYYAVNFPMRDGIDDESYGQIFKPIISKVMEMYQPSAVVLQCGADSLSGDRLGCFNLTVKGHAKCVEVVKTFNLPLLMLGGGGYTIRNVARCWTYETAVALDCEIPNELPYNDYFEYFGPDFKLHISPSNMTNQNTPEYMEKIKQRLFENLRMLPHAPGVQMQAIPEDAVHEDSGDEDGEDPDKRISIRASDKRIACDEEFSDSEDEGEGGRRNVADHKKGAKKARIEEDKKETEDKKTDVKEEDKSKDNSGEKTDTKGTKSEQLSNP

Turning to `O=C(CCCCCCC(=O)Nc1cccc(C(F)(F)F)c1)NO`, the half-inhibitory concentration (IC50) in test [1] turned out to be 2.5 µM; in test [2], 0.0751 µM; in test [3], 0.374 µM; in test [4] it was 0.006 µM; in test [5], 0.185 µM; in test [6], 0.165 µM. The concentration for half-maximal inhibition (IC50) in test [7] worked out at 0.063 µM.
On to `O=C(CCCCC[C@H](NC(=O)[C@H]1CCC(=O)N1)C(=O)Nc1cccc(C(F)(F)F)c1)NO`, for which the half-inhibitory concentration (IC50) amounted to 0.5 µM in test [1]; 0.0555 µM in test [2]; 0.0106 µM in test [3]; 0.002 µM in test [4]; 0.002 µM in test [5]; 0.008 µM in test [6]. In addition, the midpoint of inhibition in test [7], the IC50, lay at 0.002 µM.
For `Cc1cccc(NC(=O)CCCCCCC(=O)NO)c1`, the 50% inhibitory concentration (IC50) in test [1] was determined as 0.8 µM; in test [2], 1.6 µM; in test [3], 0.503 µM; in test [4], 0.022 µM; in test [5] it was 0.216 µM; in test [7], 0.197 µM.
As for `Cc1cccc(NC(=O)[C@H](CCCCCC(=O)NO)NC(=O)[C@H]2CCC(=O)N2)c1`, the IC50 in test [1] was 0.5 µM; in test [2], 0.0155 µM; in test [3], 0.0303 µM; in test [4] it was 0.003 µM; in test [5], 0.011 µM; in test [6], 0.027 µM. In test [7], this compound showed a concentration for half-maximal inhibition (IC50) of 0.007 µM.
For the compound `Cc1ccc(NC(=O)CCCCCCC(=O)NO)cc1`, the 50% inhibitory concentration (IC50) in test [1] is 4.1 µM; in test [2], 0.0786 µM; in test [3], 0.649 µM; in test [4] it was 0.012 µM; in test [5], 0.452 µM; in test [6], 0.589 µM. In addition, the 50% inhibitory concentration (IC50) in test [7] stood at 0.2 µM.
`Cc1ccc(NC(=O)[C@H](CCCCCC(=O)NO)NC(=O)[C@H]2CCC(=O)N2)cc1`: the concentration for half-maximal inhibition (IC50) in test [1] is 0.6 µM; in test [2], 0.127 µM; in test [3], 0.163 µM; in test [4] it was 0.004 µM; in test [5], 0.066 µM; in test [6], 0.093 µM. The compound also returned an IC50 in test [7] of 0.032 µM.
Turning to `O=C(CCCCC[C@H](NC(=O)[C@@H]1CCCC(=O)N1)C(=O)NCCc1ccccc1)NO`, the IC50 in test [1] stood at 8.2 µM; in test [2], 0.262 µM; in test [3] it was 0.227 µM; in test [4], 0.008 µM; in test [5], 0.539 µM; in test [6], 0.956 µM. The compound also came in with an IC50 in test [7] of 0.102 µM.
With `O=C(CCCCC[C@H](NC(=O)[C@H]1CCC(=O)N1)C(=O)NCCc1ccccc1)NO`, the concentration for half-maximal inhibition (IC50) in test [1] was 4.9 µM; in test [2], 0.0478 µM; in test [3] it was 0.21 µM; in test [4] it was 0.006 µM; in test [5], 0.144 µM; in test [6] it was 0.18 µM. For the same compound, half-maximal inhibition in test [7] (IC50) required 0.077 µM.
`O=C(CCCCC[C@H](NC(=O)[C@@H]1CCCC(=O)N1)C(=O)Nc1ccccc1)NO`: the IC50 in test [1] was determined as 2.5 µM; in test [2] it was 0.047 µM; in test [3] it was 0.051 µM; in test [4] it was 0.005 µM; in test [5], 0.02 µM; in test [6] it was 0.089 µM. This compound also displayed an IC50 in test [7] of 0.025 µM.
Consider `O=C(CCCCC[C@H](NC(=O)[C@H]1CCC(=O)N1)C(=O)Nc1ccccc1)NO`, for which the half-inhibitory concentration (IC50) in test [1] was 4 µM; in test [2], 0.075 µM; in test [3] it was 0.093 µM; in test [4], 0.008 µM; in test [5], 0.067 µM; in test [6] it was 0.142 µM. Also, in test [7], the half-maximal inhibitory concentration (IC50) came to 0.043 µM.
For the compound `O=C(CCCCC[C@H](NC(=O)[C@@H]1CCC(=O)N1)C(=O)Nc1ccccc1)NO`, the IC50 worked out at 5.4 µM in test [1]; 0.037 µM in test [2]; 0.125 µM in test [3]; 0.006 µM in test [4]; 0.089 µM in test [5]; 0.143 µM in test [6]. The compound further yielded an IC50 in test [7] of 0.059 µM.
`O=C(CCCCC[C@H](NC(=O)C1CCCNC1=O)C(=O)Nc1ccccc1)NO` (stereo not given in full): the IC50 is 5.1 µM in test [1]; 0.255 µM in test [2]; 0.244 µM in test [3]; 0.019 µM in test [4]; 0.116 µM in test [5]; 0.689 µM in test [6]. Besides, half-maximal inhibition in test [7] (IC50) was put at 0.131 µM.
As to `O=C(CCCCC[C@H](NC(=O)C1CCNC1=O)C(=O)Nc1ccccc1)NO` (stereo not given in full), the IC50 in test [1] amounted to 4 µM; in test [2], 0.15 µM; in test [3] it was 0.147 µM; in test [4], 0.004 µM; in test [5], 0.074 µM; in test [6], 0.238 µM. In test [7], this compound registered an IC50 of 0.072 µM.
On to `O=C(CCCCC[C@H](NC(=O)C1C(=O)NCC1c1ccccc1)C(=O)Nc1ccccc1)NO` (stereo not given in full), for which the half-maximal inhibitory concentration (IC50) in test [1] stood at 2.4 µM; in test [2], 0.07 µM; in test [3] it was 0.088 µM; in test [4], 0.004 µM; in test [5] it was 0.014 µM; in test [6], 0.11 µM. This compound also showed an IC50 in test [7] of 0.033 µM.
In the case of `O=C(CCCCC[C@H](NC(=O)[C@@H]1CC(=O)N1)C(=O)Nc1ccccc1)NO`, the 50% inhibitory concentration (IC50) amounted to 2.2 µM in test [1]; 0.135 µM in test [2]; 0.113 µM in test [3]; 0.003 µM in test [4]; 0.062 µM in test [5]; 0.089 µM in test [6]. Besides, the IC50 in test [7] worked out at 0.034 µM.
In the case of `O=C(CCCCCCC(=O)NC1CCCC1)NO`, the IC50 in test [1] is 21 µM; in test [2] it was 2.63 µM; in test [3] it was 4.89 µM; in test [4] it was 0.075 µM; in test [5] it was 3.33 µM; in test [6] it was 4.39 µM. This compound came in with a half-maximal inhibitory concentration (IC50) in test [7] of 1.79 µM.
Take `O=C(CCCCC[C@H](NC(=O)[C@@H]1CCCC(=O)N1)C(=O)NC1CCCC1)NO`: the IC50 in test [1] is 2.4 µM; in test [2], 1.44 µM; in test [3], 6.83 µM; in test [4], 0.031 µM; in test [5] it was 5.66 µM; in test [6], 5.04 µM. In test [7], the IC50 was 1.45 µM.
As for `O=C(CCCCCCC(=O)NCCc1ccccc1)NO`, the IC50 is 18.2 µM in test [1]; 1.13 µM in test [2]; 1.35 µM in test [3]; 0.025 µM in test [4]; 3.61 µM in test [5]; 5.16 µM in test [6]. The compound further registered a half-inhibitory concentration (IC50) in test [7] of 1.14 µM.

In general, IC50 refers to the midpoint of a concentration-inhibition curve. Read a low IC50 as greater potency.
